The record followed here is PubChem BioAssay AID1259407 (Chemical Carcinogenesis Research Information System (CCRIS), 2018).

Calls of active or inactive are those of the source. How the calls were made is not given here.

This series deals with CCRIS mutagenicity, Ames/micronucleus/aberration tests. Description: CCRIS mutagenicity studies.
Where [1] appears, read: Test System: AMES SALMONELLA TYPHIMURIUM, Strain/Indicator: TA98, Metabolic Activation: NONE, Method: STANDARD PLATE.
Setting [2] is: Test System: AMES SALMONELLA TYPHIMURIUM, Strain/Indicator: TA98, Metabolic Activation: RAT, LIVER, S-9, AROCLOR 1254, Method: STANDARD PLATE.
The mark [3] stands for this setting: Test System: AMES SALMONELLA TYPHIMURIUM, Strain/Indicator: TA97, Metabolic Activation: NONE, Method: PREINCUBATION

As for `CC(=O)Nc1cc(O)c2ccc3cccc4ccc1c2c34`, the mutagenic call was “active; positive” (Test System: AMES SALMONELLA TYPHIMURIUM, Strain/Indicator: TA98(1,8-DNP6), Metabolic Activation: NONE, Method: STANDARD PLATE); “active; positive” (Test System: AMES SALMONELLA TYPHIMURIUM, Strain/Indicator: TA98(1,8-DNP6), Metabolic Activation: RAT, LIVER, S-9, AROCLOR 1254, Method: STANDARD PLATE); “active; positive” under setting [1]; “active; positive” under setting [2]; “active; positive” (Test System: AMES SALMONELLA TYPHIMURIUM, Strain/Indicator: YG1024, Metabolic Activation: NONE, Method: STANDARD PLATE); “active; positive” (Test System: AMES SALMONELLA TYPHIMURIUM, Strain/Indicator: YG1024, Metabolic Activation: RAT, LIVER, S-9, AROCLOR 1254, Method: STANDARD PLATE).

On to `CC(C)(C)C1=CC(=O)C=CC1=O`, for which the mutagenic call is, setting by setting: under setting [3], “inactive; negative”; (Test System: AMES SALMONELLA TYPHIMURIUM, Strain/Indicator: TA97, Metabolic Activation: RAT, LIVER, S-9, PCB, Method: PREINCUBATION) “inactive; negative”; under setting [1], “inactive; negative”; (Test System: AMES SALMONELLA TYPHIMURIUM, Strain/Indicator: TA98, Metabolic Activation: RAT, LIVER, S-9, AROCLOR 1254, Method: PREINCUBATION) “inactive; negative”; under setting [2], “inactive; negative”; (Test System: AMES SALMONELLA TYPHIMURIUM, Strain/Indicator: TA98, Metabolic Activation: RAT, LIVER, S-9, PCB, Method: PREINCUBATION) “inactive; negative”. Further, the mutagenic call is, setting by setting: (Test System: AMES SALMONELLA TYPHIMURIUM, Strain/Indicator: TA100, Metabolic Activation: NONE, Method: STANDARD PLATE) “inactive; negative”; (Test System: AMES SALMONELLA TYPHIMURIUM, Strain/Indicator: TA100, Metabolic Activation: RAT, LIVER, S-9, AROCLOR 1254, Method: PREINCUBATION) “inactive; negative”; (Test System: AMES SALMONELLA TYPHIMURIUM, Strain/Indicator: TA100, Metabolic Activation: RAT, LIVER, S-9, AROCLOR 1254, Method: STANDARD PLATE) “inactive; negative”; (Test System: AMES SALMONELLA TYPHIMURIUM, Strain/Indicator: TA100, Metabolic Activation: RAT, LIVER, S-9, PCB, Method: PREINCUBATION) “inactive; negative”; (Test System: AMES SALMONELLA TYPHIMURIUM, Strain/Indicator: TA102, Metabolic Activation: NONE, Method: PREINCUBATION) “inactive; negative”; (Test System: AMES SALMONELLA TYPHIMURIUM, Strain/Indicator: TA102, Metabolic Activation: RAT, LIVER, S-9, PCB, Method: PREINCUBATION) “inactive; negative”. The mutagenic call (Test System: CHINESE HAMSTER V-79, Strain/Indicator: V-79 (HGPRT)/6-THIOGUANINE, Metabolic Activation: NONE) is “inactive; negative” and the mutagenic call (Test System: CHINESE HAMSTER V-79, Strain/Indicator: V-79 (HGPRT)/6-THIOGUANINE, Metabolic Activation: RAT, LIVER, HEPATOCYTES) is “inactive; negative”.

`OC1c2ccccc2Oc2ccccc21`: the mutagenic call is “active; positive” under setting [3]; “active; positive” (Test System: AMES SALMONELLA TYPHIMURIUM, Strain/Indicator: TA97, Metabolic Activation: RAT, LIVER, S-9, PHENOBARBITAL AND 5,6-BENZOFLAVONE, Method: PREINCUBATION); “active; positive” (Test System: AMES SALMONELLA TYPHIMURIUM, Strain/Indicator: TA98, Metabolic Activation: NONE, Method: PREINCUBATION); “active; positive” (Test System: AMES SALMONELLA TYPHIMURIUM, Strain/Indicator: TA98, Metabolic Activation: RAT, LIVER, S-9, PHENOBARBITAL AND 5,6-BENZOFLAVONE, Method: PREINCUBATION); “inactive; negative” (Test System: AMES SALMONELLA TYPHIMURIUM, Strain/Indicator: TA100, Metabolic Activation: NONE, Method: PREINCUBATION); “inactive; negative” (Test System: AMES SALMONELLA TYPHIMURIUM, Strain/Indicator: TA100, Metabolic Activation: RAT, LIVER, S-9, PHENOBARBITAL AND 5,6-BENZOFLAVONE, Method: PREINCUBATION). The mutagenic call runs as follows: (Test System: AMES SALMONELLA TYPHIMURIUM, Strain/Indicator: TA2637, Metabolic Activation: NONE, Method: PREINCUBATION) “active; positive”; (Test System: AMES SALMONELLA TYPHIMURIUM, Strain/Indicator: TA2637, Metabolic Activation: RAT, LIVER, S-9, PHENOBARBITAL AND 5,6-BENZOFLAVONE, Method: PREINCUBATION) “inactive; negative”.
